Some test systems named below: U251 CNS; BT-549 breast; HT29 colon; UACC-62 melanoma; HCT-15 colon; SN12C renal; LOX IMVI melanoma; SR leukemia; COLO 205 colon; MCF7 breast.
Common to all, as to test: growth of human tumour cells (NCI), 48 h

The structures appear in SMILES notation.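 Test compounds were applied to cells in 96-well plates for 48 hours at 5 doses. Here, GI50 denotes the concentration required for 50% inhibition of growth. TGI: total growth inhibition.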

Consider `Nc1ccc(-c2nc3ccccc3s2)cc1`, for which the TGI in the experiment with U251 CNS is 31.9 µM; in the experiment on BT-549 breast it was 28.9 µM; with HT29 colon, 40.1 µM; in the experiment on UACC-62 melanoma it was 38.6 µM; with HCT-15 colon it was 40.4 µM; in the experiment on SN12C renal it was 43.5 µM. Moreover, the TGI is 33 µM in the experiment on LOX IMVI melanoma, 62.2 µM in the experiment on SR leukemia, 45.2 µM in the experiment on COLO 205 colon and 39.4 µM in the experiment with MCF7 breast.

Consider `CC1(O)C(=O)OC2CC([C@]3(O)CCC4[C@@H]5C[C@H]6O[C@]67[C@@H](O)C=CC(=O)[C@]7(C)C5CC[C@@]43C)C1(C)C2` (stereo not given in full), for which the TGI in the experiment with U251 CNS was more than 72.6 µM; in the experiment on BT-549 breast it was 26.1 µM; with HT29 colon, 36.5 µM; in the experiment on UACC-62 melanoma, 30.2 µM; in the experiment on HCT-15 colon, 51.9 µM; in the experiment with SN12C renal it was 63.4 µM. For the same compound, the TGI was 15.7 µM in the experiment on LOX IMVI melanoma, 10.6 µM in the experiment with SR leukemia, 20.7 µM in the experiment with COLO 205 colon and more than 33 µM in the experiment with MCF7 breast.

Turning to `C=C1C(=O)O[C@H]2C/C(C=O)=C\[C@H]3O[C@H]3/C(COC(=O)C(C)C)=C/CC12` (stereo not given in full), the TGI in the experiment with U251 CNS stood at 19.6 µM; with BT-549 breast, 24.8 µM; with HT29 colon, 12.8 µM; in the experiment on UACC-62 melanoma, 5.42 µM; in the experiment with HCT-15 colon it was 9.43 µM; with SN12C renal, 7.11 µM. Moreover, the TGI in the experiment with LOX IMVI melanoma is 11.8 µM; with SR leukemia it was 7.95 µM; in the experiment with COLO 205 colon it was 5.91 µM; in the experiment with MCF7 breast it was 50 µM.

In the case of `O=C(NCc1cccnc1)C(=O)NCc1cccnc1`, the TGI with U251 CNS, in the experiment on BT-549 breast, in the experiment on HT29 colon, in the experiment on UACC-62 melanoma, in the experiment on HCT-15 colon and with SN12C renal was more than 100 µM in each case. The TGI in the experiment with LOX IMVI melanoma, in the experiment with SR leukemia, with COLO 205 colon and in the experiment on MCF7 breast was more than 100 µM in each case.

In the case of `CSc1ccccc1P(CCP(c1ccccc1SC)c1ccccc1SC)c1ccccc1SC`, the TGI with U251 CNS, with BT-549 breast, with HT29 colon, in the experiment on UACC-62 melanoma, in the experiment with HCT-15 colon and in the experiment on SN12C renal was more than 100 µM throughout. The TGI in the experiment with LOX IMVI melanoma is more than 100 µM; in the experiment on SR leukemia, more than 42.6 µM; in the experiment on COLO 205 colon, more than 53 µM; with MCF7 breast it was more than 100 µM.

Turning to `CC(C)c1nccn1Cc1ccc(Cl)cc1Cl`, the TGI in the experiment with U251 CNS is more than 100 µM; with BT-549 breast, more than 100 µM; in the experiment with HT29 colon it was more than 100 µM; with UACC-62 melanoma it was more than 100 µM; with HCT-15 colon it was more than 100 µM; in the experiment on SN12C renal, 88.7 µM. The TGI in the experiment on LOX IMVI melanoma, in the experiment on SR leukemia, with COLO 205 colon and with MCF7 breast was more than 100 µM throughout.

In the case of `OC(O)(C(F)(F)F)C(F)(F)F`, the TGI in the experiment with U251 CNS, in the experiment with BT-549 breast, in the experiment on HT29 colon, with UACC-62 melanoma, in the experiment on HCT-15 colon and in the experiment with SN12C renal was more than 100 µM each time. In addition, the TGI in the experiment with LOX IMVI melanoma, in the experiment with SR leukemia, in the experiment on COLO 205 colon and with MCF7 breast was more than 100 µM throughout.

With `C/C(=C\c1ccccc1)C(=O)NCc1ccc(C(=O)NCCc2c[nH]c3ccccc23)cc1`, the TGI in the experiment on U251 CNS was more than 100 µM; in the experiment on BT-549 breast, more than 100 µM; in the experiment with HT29 colon, more than 100 µM; in the experiment on UACC-62 melanoma, 53.7 µM; in the experiment on HCT-15 colon, more than 100 µM; with SN12C renal, more than 100 µM. For the same compound, the TGI in the experiment on LOX IMVI melanoma, in the experiment with SR leukemia, with COLO 205 colon and in the experiment with MCF7 breast was more than 100 µM each time.

In the case of `c1ccc2c(c1)c1c3n2-c2cc(on2)C3CCC1` (stereo not given), the TGI in the experiment on U251 CNS, in the experiment with BT-549 breast, in the experiment with HT29 colon, in the experiment on UACC-62 melanoma, with HCT-15 colon and in the experiment on SN12C renal was more than 100 µM each time. Further, the TGI in the experiment with LOX IMVI melanoma, in the experiment with SR leukemia, with COLO 205 colon and in the experiment on MCF7 breast was more than 100 µM in each case.

For `CCOC(=O)CCC(C(=O)OCC)n1nnc2cc(Nc3c(C)[n+]([O-])c4ccc(Cl)cc4[n+]3[O-])ccc21` (stereo not given), the TGI in the experiment on U251 CNS, with BT-549 breast, in the experiment on HT29 colon, in the experiment with UACC-62 melanoma, with HCT-15 colon and in the experiment with SN12C renal was more than 100 µM throughout. Further, the TGI was more than 100 µM in the experiment on LOX IMVI melanoma, more than 100 µM with SR leukemia, more than 100 µM in the experiment on COLO 205 colon and 93 µM in the experiment on MCF7 breast.

For `COc1ccc(C2=NNC(=O)c3ccccc3N2c2nc(-c3cccs3)nc3ccc(Br)cc23)cc1`, the TGI with U251 CNS, in the experiment with BT-549 breast, in the experiment on HT29 colon, in the experiment with UACC-62 melanoma, in the experiment with HCT-15 colon and in the experiment with SN12C renal was more than 100 µM in each case. In addition, the TGI in the experiment with LOX IMVI melanoma, in the experiment on SR leukemia, in the experiment on COLO 205 colon and in the experiment on MCF7 breast was more than 100 µM throughout.

With `Cc1ccc2cnc(N)c(C#Cc3cncc(C(=O)Nc4ccc(CN5CCN(C)CC5)c(C(F)(F)F)c4)c3)c2c1`, the GI50 was 0.59 µM with U251 CNS; 0.991 µM in the experiment on BT-549 breast; 0.106 µM in the experiment with HT29 colon; 0.628 µM in the experiment with UACC-62 melanoma; 0.174 µM in the experiment with HCT-15 colon; 0.387 µM with SN12C renal. Besides, the GI50 in the experiment on LOX IMVI melanoma is 0.289 µM; in the experiment on SR leukemia it was 0.162 µM; in the experiment on COLO 205 colon, 0.134 µM; with MCF7 breast, 0.105 µM. The TGI was 1.21 µM in the experiment on U251 CNS; 1.73 µM with BT-549 breast; 0.724 µM in the experiment on HT29 colon; 1.35 µM in the experiment on UACC-62 melanoma; 0.731 µM with HCT-15 colon; 1.07 µM with SN12C renal. In addition, the TGI with LOX IMVI melanoma came to 0.934 µM; in the experiment with SR leukemia, 1.3 µM; with COLO 205 colon, 0.723 µM; in the experiment with MCF7 breast it was 0.718 µM.

In the case of `COC(=O)/C=C\C(C#N)(C#N)N=Cc1ccsc1`, the TGI in the experiment on U251 CNS was found to be 29.7 µM; with BT-549 breast it was 5.7 µM; with HT29 colon, 8.97 µM; with UACC-62 melanoma it was 9.69 µM; in the experiment on HCT-15 colon, 2.9 µM; with SN12C renal, 9.73 µM. In addition, the TGI came out at 5.71 µM in the experiment with LOX IMVI melanoma, 0.645 µM in the experiment on SR leukemia, 2.73 µM in the experiment with COLO 205 colon and 5.05 µM in the experiment with MCF7 breast.

For the compound `Cc1ccc(S(=O)(=O)N2CCN(CCO)CCN(S(=O)(=O)c3ccc(C)cc3)CCN(CCO)CC2)cc1`, the TGI in the experiment on U251 CNS was 72.3 µM; with BT-549 breast it was more than 100 µM; in the experiment on HT29 colon, 26 µM; with UACC-62 melanoma, 37.7 µM; in the experiment with HCT-15 colon it was 37.2 µM; in the experiment with SN12C renal it was more than 100 µM. Moreover, the TGI in the experiment on LOX IMVI melanoma was 28.4 µM; in the experiment on SR leukemia it was 27.8 µM; with COLO 205 colon, 33.2 µM; with MCF7 breast, 28.2 µM.

The values are drawn from PubChem BioAssay (NCI).
